Earlier results as cited in patent US20070212387A1, “COATINGS FOR IMPLANTABLE MEDICAL DEVICES” (Sahajanand Medical Technologies Pvt. Ltd., priority 2006, published 2007).

How the values were obtained:
[1] = in water

Compound	water solubility [1]	concentration preventing collagen induced platelet aggregation (platelets)
O=c1c(-c2ccc(O)cc2)coc2cc(O)cc(O)c12 [Genistein, 5,7-dihydroxy-3-(4-hydroxyphenyl)-4H-1-benzopyran-4-one]	practically insoluble in water	more than 25 μM
O=c1c(-c2ccc(O)cc2)coc2cc(O[C@@H]3O[C@H](CO)[C@@H](O)[C@H](O)[C@H]3O)cc(O)c12 [Genistin]	greater water solubility than genistein	
O=c1c(O)c(-c2ccc(O)c(O)c2)oc2cc(O)cc(O)c12 [Quercetin, 2-(3,4-dihydroxyphenyl)-3,5,7-trihydroxy-4H-1-benzopyran-4-one]	practically insoluble in water	
